Experimental data published in ChEMBL document CHEMBL3885881, “DrugMatrix”.

Species: Rattus norvegicus
Assay type: toxicity, organism-based, Sprague-Dawley
Settings: in vivo, po, route oral GAVAGE, […]; for ABSOLUTE EOSINOPHIL / ABSOLUTE LYMPHOCYTE / ABSOLUTE MONOCYTE / ABSOLUTE SEGMENTED NEUTROPHIL / BASOPHIL / EOSINOPHIL / ERYTHROCYTE COUNT / HEMATOCRIT / HEMOGLOBIN / LEUKOCYTE COUNT / LYMPHOCYTE / MEAN CORPUSCULAR HEMOGLOBIN / MEAN CORPUSCULAR HEMOGLOBIN CONCENTRATION / MEAN CORPUSCULAR VOLUME / MONOCYTE / NEUTROPHIL / NUCLEATED RED BLOOD CELLS / PLATELET COUNT: tissue Blood; for ALANINE AMINOTRANSFERASE / ALBUMIN / ALKALINE PHOSPHATASE / ASPARTATE AMINOTRANSFERASE / BLOOD UREA NITROGEN / CARBON DIOXIDE / CHLORIDE / CHOLESTEROL / CREATINE PHOSPHOKINASE / CREATININE / GLUCOSE / LACTATE DEHYDROGENASE / LIPASE / PHOSPHORUS / POTASSIUM / SODIUM / TOTAL BILIRUBIN / TOTAL PROTEIN / URIC ACID: tissue Plasma
[1] = 0 mg/kg, 6 h, vehicle control, dose level Control, time 0.25 day
[2] = 0 mg/kg, 24 h, vehicle control, dose level Control, time 1 day
[3] = 100 mg/kg, 6 h, dose level Low, time 0.25 day
[4] = 100 mg/kg, 24 h, dose level Low, time 1 day

Description: DrugMatrix - Regimen: Single

## CC(C)(Oc1ccc(CCNC(=O)c2ccc(Cl)cc2)cc1)C(=O)O [BEZAFIBRATE]
[1]
  ABSOLUTE EOSINOPHIL: 0 CELLS/uL
  ABSOLUTE LYMPHOCYTE: 8631 CELLS/uL
  ABSOLUTE MONOCYTE: 171.17 CELLS/uL
  ABSOLUTE SEGMENTED NEUTROPHIL: 1214.5 CELLS/uL
  BASOPHIL: 0%
  EOSINOPHIL: 0%
  ERYTHROCYTE COUNT: 5.42 x10E6/uL
  HEMATOCRIT: 34.7%
  HEMOGLOBIN: 13.67 G/DL
  LEUKOCYTE COUNT: 10.02 x10E3/uL
  LYMPHOCYTE: 86.17%
  MEAN CORPUSCULAR HEMOGLOBIN: 25.27 pg
  MEAN CORPUSCULAR HEMOGLOBIN CONCENTRATION: 39.42 G/DL
  MEAN CORPUSCULAR VOLUME: 64.12 fL
  MONOCYTE: 1.67%
  NEUTROPHIL: 12.17%
  NUCLEATED RED BLOOD CELLS: 0 /100WBC
  PLATELET COUNT: 1050 x10E3/uL
  ALANINE AMINOTRANSFERASE: 61 u/L
  ALBUMIN: 4.67 G/DL
  ALKALINE PHOSPHATASE: 312.5 u/L
  ASPARTATE AMINOTRANSFERASE: 117.5 u/L
  BLOOD UREA NITROGEN: 8.67 mg/dL
  CARBON DIOXIDE: 26.33 mmol/L
  CHLORIDE: 100.5 MEQ/L
  CHOLESTEROL: 72 mg/dL
  CREATINE PHOSPHOKINASE: 283.33 u/L
  CREATININE: 0.28 mg/dL
  GLUCOSE: 172 mg/dL
  LACTATE DEHYDROGENASE: 95.33 u/L
  LIPASE: 10.17 u/L
  PHOSPHORUS: 9.9 mg/dL
  POTASSIUM: 5.75 MEQ/L
  SODIUM: 142.4 MEQ/L
  TOTAL BILIRUBIN: 0.3 mg/dL
  TOTAL PROTEIN: 5.43 G/DL
  URIC ACID: 0.73 mg/dL
[2]
  ABSOLUTE EOSINOPHIL: 90.83 CELLS/uL
  ABSOLUTE LYMPHOCYTE: 14725.17 CELLS/uL
  ABSOLUTE MONOCYTE: 220 CELLS/uL
  ABSOLUTE SEGMENTED NEUTROPHIL: 1080.67 CELLS/uL
  BASOPHIL: 0%
  EOSINOPHIL: 0.67%
  ERYTHROCYTE COUNT: 5.3 x10E6/uL
  HEMATOCRIT: 33.4%
  HEMOGLOBIN: 13.4 G/DL
  LEUKOCYTE COUNT: 16.12 x10E3/uL
  LYMPHOCYTE: 91.17%
  MEAN CORPUSCULAR HEMOGLOBIN: 25.3 pg
  MEAN CORPUSCULAR HEMOGLOBIN CONCENTRATION: 40.12 G/DL
  MEAN CORPUSCULAR VOLUME: 63.05 fL
  MONOCYTE: 1.5%
  NEUTROPHIL: 6.67%
  NUCLEATED RED BLOOD CELLS: 0 /100WBC
  PLATELET COUNT: 1062 x10E3/uL
  ALANINE AMINOTRANSFERASE: 69 u/L
  ALBUMIN: 4.33 G/DL
  ALKALINE PHOSPHATASE: 269 u/L
  ASPARTATE AMINOTRANSFERASE: 83.67 u/L
  BLOOD UREA NITROGEN: 14 mg/dL
  CARBON DIOXIDE: 29 mmol/L
  CHLORIDE: 100.83 MEQ/L
  CHOLESTEROL: 66.67 mg/dL
  CREATINE PHOSPHOKINASE: 355 u/L
  CREATININE: 0.18 mg/dL
  GLUCOSE: 161.33 mg/dL
  LACTATE DEHYDROGENASE: 123.33 u/L
  LIPASE: 10.67 u/L
  PHOSPHORUS: 8.83 mg/dL
  POTASSIUM: 6.06 MEQ/L
  SODIUM: 142.45 MEQ/L
  TOTAL BILIRUBIN: 0.2 mg/dL
  TOTAL PROTEIN: 5.72 G/DL
  URIC ACID: 1.27 mg/dL
[3]
  ABSOLUTE EOSINOPHIL: 94.83 CELLS/uL
  ABSOLUTE LYMPHOCYTE: 14637.67 CELLS/uL
  ABSOLUTE MONOCYTE: 333.5 CELLS/uL
  ABSOLUTE SEGMENTED NEUTROPHIL: 1884 CELLS/uL
  BASOPHIL: 0%
  EOSINOPHIL: 0.5%
  ERYTHROCYTE COUNT: 5.71 x10E6/uL
  HEMATOCRIT: 36.27%
  HEMOGLOBIN: 14.22 G/DL
  LEUKOCYTE COUNT: 16.95 x10E3/uL
  LYMPHOCYTE: 86.67%
  MEAN CORPUSCULAR HEMOGLOBIN: 24.97 pg
  MEAN CORPUSCULAR HEMOGLOBIN CONCENTRATION: 39.22 G/DL
  MEAN CORPUSCULAR VOLUME: 63.68 fL
  MONOCYTE: 2%
  NEUTROPHIL: 10.83%
  NUCLEATED RED BLOOD CELLS: 0 /100WBC
  PLATELET COUNT: 1045.83 x10E3/uL
  ALANINE AMINOTRANSFERASE: 67.33 u/L
  ALBUMIN: 4.53 G/DL
  ALKALINE PHOSPHATASE: 339 u/L
  ASPARTATE AMINOTRANSFERASE: 90 u/L
  BLOOD UREA NITROGEN: 8.17 mg/dL
  CARBON DIOXIDE: 18.33 mmol/L
  CHLORIDE: 102.17 MEQ/L
  CHOLESTEROL: 75.5 mg/dL
  CREATINE PHOSPHOKINASE: 329.33 u/L
  CREATININE: 0.19 mg/dL
  GLUCOSE: 163 mg/dL
  LACTATE DEHYDROGENASE: 253 u/L
  LIPASE: 10.17 u/L
  PHOSPHORUS: 12.57 mg/dL
  POTASSIUM: 5.78 MEQ/L
  SODIUM: 143.17 MEQ/L
  TOTAL BILIRUBIN: 0.32 mg/dL
  TOTAL PROTEIN: 6.1 G/DL
  URIC ACID: 1.68 mg/dL
[4]
  ABSOLUTE EOSINOPHIL: 44 CELLS/uL
  ABSOLUTE LYMPHOCYTE: 13234.17 CELLS/uL
  ABSOLUTE MONOCYTE: 357.67 CELLS/uL
  ABSOLUTE SEGMENTED NEUTROPHIL: 1847.5 CELLS/uL
  BASOPHIL: 0%
  EOSINOPHIL: 0.33%
  ERYTHROCYTE COUNT: 5.35 x10E6/uL
  HEMATOCRIT: 34.67%
  HEMOGLOBIN: 13.47 G/DL
  LEUKOCYTE COUNT: 15.48 x10E3/uL
  LYMPHOCYTE: 85%
  MEAN CORPUSCULAR HEMOGLOBIN: 25.28 pg
  MEAN CORPUSCULAR HEMOGLOBIN CONCENTRATION: 38.95 G/DL
  MEAN CORPUSCULAR VOLUME: 64.9 fL
  MONOCYTE: 2.33%
  NEUTROPHIL: 12.33%
  NUCLEATED RED BLOOD CELLS: 0.17 /100WBC
  PLATELET COUNT: 977.33 x10E3/uL
  ALANINE AMINOTRANSFERASE: 83.17 u/L
  ALBUMIN: 4.5 G/DL
  ALKALINE PHOSPHATASE: 333 u/L
  ASPARTATE AMINOTRANSFERASE: 86.33 u/L
  BLOOD UREA NITROGEN: 13 mg/dL
  CARBON DIOXIDE: 28.83 mmol/L
  CHLORIDE: 101.67 MEQ/L
  CHOLESTEROL: 43.5 mg/dL
  CREATINE PHOSPHOKINASE: 192.33 u/L
  CREATININE: 0.21 mg/dL
  GLUCOSE: 143.33 mg/dL
  LACTATE DEHYDROGENASE: 106.5 u/L
  LIPASE: 10.17 u/L
  PHOSPHORUS: 9.88 mg/dL
  POTASSIUM: 6.29 MEQ/L
  SODIUM: 146.55 MEQ/L
  TOTAL BILIRUBIN: 0.17 mg/dL
  TOTAL PROTEIN: 5.77 G/DL
  URIC ACID: 1.02 mg/dL
